Assay results: patent US11345710B2, “Imidazo[1,2-b]pyrimido[4,5-d]pyridazin-5(6H)-ones and the use thereof” (IMPACT THERAPEUTICS (SHANGHAI), INC, priority 2017, dated 2022)
Read-outs that look alike come from different tables or passages of the source.

What was measured:
[1] = biological target: Wee1 kinase (h) (Homo sapiens, UniProt P30291); assay: Wee1 kinase (h) detection method, [γ-33P]-ATP filter assay; assay type: biochemical; conditions: 10 μM ATP, 40 minutes at room temperature
Experimental: Wee1 kinase (h) was incubated with 20 mM Tris/HCl pH 8.5, 0.2 mM EDTA, 500 μM […], 10 mM MgAcetate and 10 μM [γ-^33P]-ATP. Then the stock solution of all compounds under test with 50× concentration in 100% DMSO was added to make the final concentration of 1/0.1/0.01 μM, and then mixed the mixture well. The reaction was initiated by the addition of the Mg/ATP mix. After incubation for 40 minutes at room temperature, the reaction was stopped by the addition of phosphoric acid to a concentration of 0.5%. 10 μL of the reaction liquor was then spotted onto a P30 filtermat and washed four times in 0.425% phosphoric acid and once in methanol prior to drying and scintillation counting. Each compound sample was duplicated in duplicate. The negative control was lack of all the components of Wee1 enzyme, and the positive was addition of 30% phosphoric acid to terminate the reaction. The Wee1 inhibitor AZD1775 was detected at 10/0.01 μM at the same experiment condition.

[2] = test system: LoVo cells; assay: MTT based cell viability assay on LoVo cells; conditions: Homo sapiens, 72 h, read-out: IC50, growth inhibition on LoVo cells
Experimental: Determination of the Cell Growth Inhibiting Activity of 6-(2,6-dichlorophenyl)-2-((4-(4-methylpiperazin-1-yl)phenyl)amino)imidazo[1,2-b]pyrimido[4,5-d]pyridazin-5(6H)-one and Analogs Thereof on LoVo Cells Using a MTT Based Cell Viability Assay
The thawed LoVo cells were cultured and passaged to the third generation, and the growth state was good and the confluence was about 90%, which began to be used in the experiment. The LoVo cells were digested with trypsin, centrifuged at 800 rpm for 5 min, the supernatant was discarded, resuspended with fresh culture medium, and counted. 6000 Cells are seeded to each well of a 96-well cell culture plate. The cells were incubated at 37° C. in a 5% CO2 cell culture incubator overnight. The tested sample (including the tested compound and the reference compound AZD1775) was diluted continuously to 8 concentrations (the last concentration was negative control of DMSO) with a 1:3 and 1:10 dilution in DMSO respectively: 10 μM, 3.3 μM, 1 μM, 0.33 μM, 0.1 μM, 0.033 μM, 0.01 μM, 0 μM (the final concentration of DMSO was 1%). 5 μL of each concentration was added to 120 μL of culture medium (25 times diluted), and the mixture was shaken well. The overnight cells were taken and the culture medium was removed, 195 μL of fresh culture medium was added to each well, and 5 μL of diluted culture medium containing the corresponding concentration of the tested sample was added respectively, and the culture plate was then placed in the 5% CO2 cell culture incubator at 37° C. for 3 d. After removing the original solution and adding 100 μL of fresh serum-free DMEM culture medium containing MTT (0.5 mg/mL) per well, the culture was continued. The original solution was removed after 4 hrs and 100 μl DMSO was added to each well. The 96-well cell culture plates were shaken away from light for 10 min and readed in a multifunctional reader at 552/630/690 nm to give absorption values (OD values). The data were analyzed using a graphic software (Graph Pad Prism 5.0) and the inhibitory activity of the compound on cell proliferation was plotted in terms of cell survival and compound concentration. The IC50 values were fitted by the S-shaped dose-response curve equation as follows: Y=100/(1+10^(Log C−Log IC50)), where C was the concentration of testing compounds.

[3] = test system: NCI-H1299 cells; assay: MTT based cell viability assay on NCI-H1299 cells; conditions: Homo sapiens, read-out: IC50, growth inhibition on NCI-H1299 cells
Experimental: Determination of the Cell Growth Inhibiting Activity of 6-(2,6-dichlorophenyl)-2-((4-(4-methylpiperazin-1-yl)phenyl)amino)imidazo[1,2-b]pyrimido[4,5-d]pyridazin-5(6H)-one and Analogs on NCI-H1299 Cells Using a MTT Based Cell Viability Assay
The thawed NCI-H1299 cells were cultured and passaged to the third generation, and the growth state was good and the confluence was about 90%, which began to be used in the experiment. The NCI-H1299 cells were digested with trypsin, centrifuged at 800 rpm for 5 min, the supernatant was discarded, resuspended with fresh culture medium, and counted. 1000 Cells are seeded to each well of a 96-well plate. The cells are incubated at 37° C. in a 5% CO2 cell culture incubator overnight. The tested sample (including the tested compound and the reference compound AZD1775) was diluted continuously to 8 concentrations (the last concentration was negative control of DMSO) with a 1:3 and 1:10 dilution in DMSO respectively: 10 μM, 3.3 μM, 1 μM, 0.33 μM, 0.1 μM, 0.033 μM, 0.01 μM, 0 μM (the final concentration of DMSO was 1%). 5 μL of each concentration was added to 120 μL of culture medium (25 times diluted), and the mixture was shaken well. The overnight cells were taken and the culture medium was removed, 195 μL of fresh culture medium was added to each well, and 5 μL of diluted culture medium containing the corresponding concentration of the tested sample was added respectively, and the culture plate was then placed in the 5% CO2 cell culture incubator at 37° C. for 3 d. After removing the original solution and adding 100 μL of fresh serum-free DMEM culture medium containing MTT (0.5 mg/mL) per well, the culture was continued. The original solution was removed after 4 hrs and 100 μl DMSO was added to each well. The 96-well cell culture plates were shaken away from light for 10 min and readed in a multifunctional reader at 552/630/690 nm to give absorption values (OD values). The data were analyzed using a graphic software (Graph Pad Prism 5.0) and the inhibitory activity of the compound on cell proliferation was plotted in terms of cell survival and compound concentration. The IC50 values were fitted by the S-shaped dose-response curve equation as follows: Y=100/(1+10^(Log C−Log IC50)), where C was the concentration of testing compounds.

[4] = 72 h, NCI-H1299 cells, 3 d, MTT

Chain of Wee1 kinase (h) (P30291 whole entry): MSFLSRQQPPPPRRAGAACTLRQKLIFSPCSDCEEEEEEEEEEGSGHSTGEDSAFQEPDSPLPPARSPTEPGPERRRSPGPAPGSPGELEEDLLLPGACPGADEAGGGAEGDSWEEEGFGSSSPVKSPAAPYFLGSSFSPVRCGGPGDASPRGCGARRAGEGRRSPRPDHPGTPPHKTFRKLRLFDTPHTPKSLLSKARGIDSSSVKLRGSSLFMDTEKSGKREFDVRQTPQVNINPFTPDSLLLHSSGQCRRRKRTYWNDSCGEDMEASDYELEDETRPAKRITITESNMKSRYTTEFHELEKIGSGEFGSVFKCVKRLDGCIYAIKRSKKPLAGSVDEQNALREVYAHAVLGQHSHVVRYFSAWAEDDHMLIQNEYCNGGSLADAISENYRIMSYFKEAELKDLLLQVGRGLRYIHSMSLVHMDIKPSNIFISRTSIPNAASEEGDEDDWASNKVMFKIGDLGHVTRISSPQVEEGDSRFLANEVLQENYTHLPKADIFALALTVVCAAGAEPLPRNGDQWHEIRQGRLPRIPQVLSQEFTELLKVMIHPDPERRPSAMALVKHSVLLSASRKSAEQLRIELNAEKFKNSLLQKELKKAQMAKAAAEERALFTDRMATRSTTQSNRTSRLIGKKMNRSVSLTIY

Row | Inh. (%) of Wee1 kinase ([1]; C 1 μm) [%] | IC50 ([2]; LoVo cells, 3 d, MTT) [nM] | IC50 [3, 4] [nM] | Inh. (%) of Wee1 kinase ([1]; C 0.01 μm) [%] | Inh. (%) of Wee1 kinase ([1]; C 0.1 μm) [%] | SMILES | IC50 ([2]; LoVo) [nM] | IC50 ([3]; NCI-H1299, 72 h) [nM]
1 | 96 | 818 | 445 |  |  | CN1Cc2cc(Nc3ncc4c(=O)n(-c5c(F)cccc5Cl)n5ccnc5c4n3)ccc2C(C)(C)C1 [Example 12, 6-(2-chloro-6-fluorophenyl)-2-((2,4,4-trimethyl-1,2,3,4-tetrahydroisoquinolin-7-yl)amino)imidazo[1,2-b]pyrimido[4,5-d]pyridazin-5(6H)-one] |  | 
2 | 85 | 488 | 738 |  |  | Cc1cc(Nc2ncc3c(=O)n(-c4c(F)cccc4F)n4ccnc4c3n2)cc(C)c1N1CCN(C)CC1 [Example 13, 6-(2,6-difluorophenyl)-2-((3,5-dimethyl-4-(4-methylpiperazin-1-yl)phenyl)amino)imidazo[1,2-b]pyrimido[4,5-d]pyridazin-5(6H)-one] |  | 
3 | 93 | 871 | 587 |  |  | Cc1cc(Nc2ncc3c(=O)n(-c4c(C)cccc4F)n4ccnc4c3n2)ccc1N1CCN(C)CC1 [Example 14, 6-(2-fluoro-6-methylphenyl)-2-((3-methyl-4-(4-methylpiperazin-1-yl)phenyl)amino)imidazo[1,2-b]pyrimido[4,5-d]pyridazin-5(6H)-one] |  | 
4 | 87 | 832 | 904 |  |  | Cc1cc(Nc2ncc3c(=O)n(-c4c(C)cccc4F)n4ccnc4c3n2)cc(C)c1N1CCN(C)CC1 [Example 15, 6-(2-fluoro-6-methylphenyl)-2-((3,5-dimethyl-4-(4-methylpiperazin-1-yl)phenyl)amino) imidazo[1,2-b]pyrimido[4,5-d]pyridazin-5(6H)-one] |  | 
5 | 93 | 424 | 365 | 22 | 73 | Cc1cc(Nc2ncc3c(=O)n(-c4c(C)cccc4Cl)n4ccnc4c3n2)ccc1N1CCN(C)CC1 [Example 16, 6-(2-chloro-6-methylphenyl)-2-((3-methyl-4-(4-methylpiperazin-1-yl)phenyl)amino)imidazo[1,2-b]pyrimido[4,5-d]pyridazin-5(6H)-one] |  | 
6 | 96 | 902 | 802 | 5 | 56 | Cc1cc(Nc2ncc3c(=O)n(-c4c(C)cccc4Cl)n4ccnc4c3n2)cc(C)c1N1CCN(C)CC1 [Example 17, 6-(2-chloro-6-methylphenyl)-2-((3,5-dimethyl-4-(4-methylpiperazin-1-yl)phenyl)amino)imidazo[1,2-b]pyrimido[4,5-d]pyridazin-5(6H)-one] |  | 
7 | 87 | 579 | 1080 |  |  | CN1CCN(c2ccc(Nc3ncc4c(=O)n(-c5c(F)cccc5F)n5ccnc5c4n3)cc2Cl)CC1 [Example 18, 6-(2,6-difluorophenyl)-2-((3-chloro-4-(4-methylpiperazin-1-yl)phenyl)amino)imidazo[1,2-b]pyrimido[4,5-d]pyridazin-5(6H)-one] |  | 
8 | 92 | 408 | 743 |  |  | Cc1cc(Nc2ncc3c(=O)n(-c4c(F)cccc4F)n4ccnc4c3n2)cc(F)c1N1CCN(C)CC1 [Example 19, 6-(2,6-difluorophenyl)-2-((3-fluoro-5-methyl-4-(4-methylpiperazin-1-yl)phenyl)amino)imidazo[1,2-b]pyrimido[4,5-d]pyridazin-5(6H)-one] |  | 
9 | 77 | 364 | 597 |  |  | Cc1cc(Nc2ncc3c(=O)n(-c4c(F)cccc4F)n4ccnc4c3n2)cc(Cl)c1N1CCN(C)CC1 [Example 20, 6-(2,6-difluorophenyl)-2-((3-chloro-5-methyl-4-(4-methylpiperazin-1-yl)phenyl)amino) imidazo[1,2-b]pyrimido[4,5-d]pyridazin-5(6H)-one] |  | 
10 | 95 | 259 | 511 |  |  | CN1CCN(c2ccc(Nc3ncc4c(=O)n(-c5c(F)cccc5Cl)n5ccnc5c4n3)cc2Cl)CC1 [Example 21, 6-(2-chloro-6-fluorophenyl)-2-((3-chloro-4-(4-methylpiperazin-1-yl)phenyl)amino)imidazo[1,2-b]pyrimido[4,5-d]pyridazin-5(6H)-one] |  | 
11 | 95 | 138 | 376 | 21 |  | Cc1cc(Nc2ncc3c(=O)n(-c4c(F)cccc4Cl)n4ccnc4c3n2)cc(F)c1N1CCN(C)CC1 [Example 22, 6-(2-chloro-6-fluorophenyl)-2-((3-fluoro-5-methyl-4-(4-methylpiperazin-1-yl)phenyl)amino)imidazo[1,2-b]pyrimido[4,5-d]pyridazin-5(6H)-one] |  | 
12 | 91 | 195 | 528 |  |  | Cc1cc(Nc2ncc3c(=O)n(-c4c(F)cccc4Cl)n4ccnc4c3n2)cc(Cl)c1N1CCN(C)CC1 [Example 23, 6-(2-chloro-6-fluorophenyl)-2-((3-chloro-5-methyl-4-(4-methylpiperazin-1-yl)phenyl)amino)imidazo[1,2-b]pyrimido[4,5-d]pyridazin-5(6H)-one] |  | 
13 | 96 | 144 | 249 | 10 |  | Cc1cc(Nc2ncc3c(=O)n(-c4c(F)cccc4Cl)n4ccnc4c3n2)cc(F)c1N1CCC(N(C)C)CC1 [Example 25, 6-(2-chloro-6-fluorophenyl)-2-((3-fluoro-5-methyl-4-(4-(dimethylamino)piperidin-1-yl)phenyl)amino)imidazo[1,2-b]pyrimido[4,5-d]pyridazin-5(6H)-one] |  | 

Row | SMILES | Inh. (%) of Wee1 kinase ([1]; C 1 μm) [%] | IC50 ([2]; LoVo cells, 3 d, MTT) [nM] | IC50 [3, 4] [nM] | Inh. (%) of Wee1 kinase ([1]; C 0.01 μm) [%] | Inh. (%) of Wee1 kinase ([1]; C 0.1 μm) [%] | IC50 ([2]; LoVo) [nM] | IC50 ([3]; NCI-H1299, 72 h) [nM]
14 | Cc1cc(Nc2ncc3c(=O)n(-c4c(Cl)cccc4Cl)n4ccnc4c3n2)ccc1N1CCNCC1 [Example 26, 6-(2,6-dichlorophenyl)-2-((3-methyl-4-(piperazin-1-yl)phenyl)amino)imidazo[1,2-b]pyrimido[4,5-d]pyridazin-5(6H)-one] |  |  |  | 27 |  | 201 | 268
